{
  "source": "ChEMBL document CHEMBL2424622",
  "about": "“Development of amino-pyrimidine inhibitors of c-Jun N-terminal kinase (JNK): kinase profiling guided optimization of a 1,2,3-benzotriazole lead” (Bioorg Med Chem Lett, 2013)",
  "key": {"[1]": {"target": "Mitogen-activated protein kinase 14 (Homo sapiens, UniProt Q16539)", "experiment": "Binding affinity to p38-alpha (unknown origin)"}, "[2]": {"experiment": "Intrinsic permeability from apical to basolateral side in human Caco2 cells at 10 uM", "format": "ADME, cell-based", "settings": "Caco-2, read-out: permeability"}, "[3]": {"target": "Serine/threonine-protein kinase Nek5 (Homo sapiens, UniProt Q6P3R8)", "experiment": "Binding affinity to NEK5 (unknown origin)"}, "LIM domain kinase 2": {"target": "LIM domain kinase 2 (Homo sapiens, UniProt P53671)", "sequence (P53671 whole entry, the tested form may be a part)": "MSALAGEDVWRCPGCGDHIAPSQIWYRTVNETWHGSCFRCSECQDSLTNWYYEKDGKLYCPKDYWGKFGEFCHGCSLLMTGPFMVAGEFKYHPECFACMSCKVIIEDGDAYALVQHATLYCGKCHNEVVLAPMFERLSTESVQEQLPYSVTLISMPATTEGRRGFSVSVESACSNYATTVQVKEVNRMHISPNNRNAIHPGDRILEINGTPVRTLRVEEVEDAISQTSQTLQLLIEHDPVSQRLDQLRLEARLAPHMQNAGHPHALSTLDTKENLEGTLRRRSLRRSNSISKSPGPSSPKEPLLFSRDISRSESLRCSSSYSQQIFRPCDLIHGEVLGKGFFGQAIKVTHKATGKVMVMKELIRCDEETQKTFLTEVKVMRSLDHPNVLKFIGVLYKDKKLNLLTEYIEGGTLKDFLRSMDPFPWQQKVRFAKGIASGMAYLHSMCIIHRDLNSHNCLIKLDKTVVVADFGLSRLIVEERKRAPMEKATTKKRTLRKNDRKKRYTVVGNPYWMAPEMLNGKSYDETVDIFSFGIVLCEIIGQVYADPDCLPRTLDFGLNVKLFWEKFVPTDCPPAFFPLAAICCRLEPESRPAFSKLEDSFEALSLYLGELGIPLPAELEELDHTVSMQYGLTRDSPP", "experiment": "Binding affinity to LIMK2 (unknown origin)"}, "[4]": {"target": "Serine/threonine-protein kinase 17A (Homo sapiens, UniProt Q9UEE5)", "sequence (Q9UEE5 whole entry)": "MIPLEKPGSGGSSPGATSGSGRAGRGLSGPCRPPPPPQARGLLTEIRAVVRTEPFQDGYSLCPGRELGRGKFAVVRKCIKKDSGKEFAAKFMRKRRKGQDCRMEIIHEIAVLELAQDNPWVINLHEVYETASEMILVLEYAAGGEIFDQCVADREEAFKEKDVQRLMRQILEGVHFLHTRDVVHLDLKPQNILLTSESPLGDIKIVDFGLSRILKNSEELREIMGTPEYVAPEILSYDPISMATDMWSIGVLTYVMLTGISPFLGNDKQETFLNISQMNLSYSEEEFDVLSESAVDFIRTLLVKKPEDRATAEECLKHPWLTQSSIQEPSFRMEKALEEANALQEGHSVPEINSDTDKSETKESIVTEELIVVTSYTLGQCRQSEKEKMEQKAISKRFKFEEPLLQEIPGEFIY", "experiment": "Binding affinity to DRAK1 (unknown origin)"}, "[5]": {"experiment": "Half life in Hanover-Wistar rat at 2 mg/kg, po", "format": "ADME, organism-based", "design": "dose 2 mg/kg, route oral", "settings": "in vivo"}, "[6]": {"target": "Death-associated protein kinase 2 (Homo sapiens, UniProt Q9UIK4)", "experiment": "Binding affinity to DAPK2 (unknown origin)"}, "[7]": {"target": "Platelet-derived growth factor receptor beta (Homo sapiens, UniProt P09619)", "sequence (P09619 whole entry)": "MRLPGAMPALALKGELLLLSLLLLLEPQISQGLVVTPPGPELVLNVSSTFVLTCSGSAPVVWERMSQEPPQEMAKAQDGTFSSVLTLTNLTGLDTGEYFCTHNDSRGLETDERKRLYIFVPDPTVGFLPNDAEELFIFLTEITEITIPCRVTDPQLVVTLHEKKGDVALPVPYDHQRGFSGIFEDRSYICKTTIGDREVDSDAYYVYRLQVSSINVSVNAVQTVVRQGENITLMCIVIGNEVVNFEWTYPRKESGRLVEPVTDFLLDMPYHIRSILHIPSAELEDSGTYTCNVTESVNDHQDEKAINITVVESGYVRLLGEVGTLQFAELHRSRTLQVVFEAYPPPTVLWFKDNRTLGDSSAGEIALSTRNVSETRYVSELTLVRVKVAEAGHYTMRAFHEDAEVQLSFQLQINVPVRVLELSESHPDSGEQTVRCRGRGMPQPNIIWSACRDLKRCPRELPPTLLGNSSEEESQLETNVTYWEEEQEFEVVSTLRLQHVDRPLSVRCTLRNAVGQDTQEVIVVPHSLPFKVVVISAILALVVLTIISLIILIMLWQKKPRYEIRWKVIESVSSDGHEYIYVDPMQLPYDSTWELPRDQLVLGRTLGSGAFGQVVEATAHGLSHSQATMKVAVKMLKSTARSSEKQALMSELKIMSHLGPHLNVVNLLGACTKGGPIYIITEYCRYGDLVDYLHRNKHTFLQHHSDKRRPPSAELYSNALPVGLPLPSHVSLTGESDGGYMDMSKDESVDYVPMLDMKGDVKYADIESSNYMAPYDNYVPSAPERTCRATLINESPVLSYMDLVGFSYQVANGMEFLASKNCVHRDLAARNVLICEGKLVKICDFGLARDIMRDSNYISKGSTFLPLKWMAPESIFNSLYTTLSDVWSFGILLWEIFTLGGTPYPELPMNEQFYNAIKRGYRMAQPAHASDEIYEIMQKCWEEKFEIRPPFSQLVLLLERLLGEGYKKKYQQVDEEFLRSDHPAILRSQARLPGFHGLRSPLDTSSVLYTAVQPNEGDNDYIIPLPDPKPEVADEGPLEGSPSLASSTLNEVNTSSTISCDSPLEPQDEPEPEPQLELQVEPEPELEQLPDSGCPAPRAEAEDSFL", "experiment": "Binding affinity to PDGFRB (unknown origin)"}, "[8]": {"target": "Serine/threonine-protein kinase 16 (Homo sapiens, UniProt O75716)", "sequence (O75716 whole entry)": "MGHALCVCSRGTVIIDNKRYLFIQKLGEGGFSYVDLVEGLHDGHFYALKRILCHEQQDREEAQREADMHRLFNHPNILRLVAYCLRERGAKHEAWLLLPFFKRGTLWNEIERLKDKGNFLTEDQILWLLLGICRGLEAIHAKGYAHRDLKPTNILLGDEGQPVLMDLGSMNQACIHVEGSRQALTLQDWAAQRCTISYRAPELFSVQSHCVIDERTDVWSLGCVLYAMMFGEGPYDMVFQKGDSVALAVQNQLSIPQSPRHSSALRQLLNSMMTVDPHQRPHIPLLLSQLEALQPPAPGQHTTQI", "experiment": "Binding affinity to STK16 (unknown origin)"}, "Rattus norvegicus [9]": {"system": "Rattus norvegicus", "experiment": "Cmax in Hanover-Wistar rat at 2 mg/kg, po", "format": "ADME, organism-based", "design": "dose 2 mg/kg, route oral", "settings": "in vivo"}, "[10]": {"experiment": "Equilibrium aqueous solubility in phosphate buffer at pH 6.5 at 25 degC", "format": "physicochemical"}, "Rattus norvegicus [11]": {"system": "Rattus norvegicus", "experiment": "Cmax in Hanover-Wistar rat at 0.5 mg/kg, iv", "format": "ADME, organism-based", "design": "dose 0.5 mg/kg, route intravenous", "settings": "in vivo"}, "[12]": {"experiment": "Oral bioavailability in Hanover-Wistar rat at 2 mg/kg", "format": "ADME, organism-based", "settings": "in vivo"}, "[13]": {"experiment": "Half life in Hanover-Wistar rat at 0.5 mg/kg, iv", "format": "ADME, organism-based", "design": "dose 0.5 mg/kg, route intravenous", "settings": "in vivo"}, "[14]": {"target": "Cyclin-dependent kinase 11A (Homo sapiens, UniProt Q9UQ88)", "sequence (Q9UQ88 whole entry)": "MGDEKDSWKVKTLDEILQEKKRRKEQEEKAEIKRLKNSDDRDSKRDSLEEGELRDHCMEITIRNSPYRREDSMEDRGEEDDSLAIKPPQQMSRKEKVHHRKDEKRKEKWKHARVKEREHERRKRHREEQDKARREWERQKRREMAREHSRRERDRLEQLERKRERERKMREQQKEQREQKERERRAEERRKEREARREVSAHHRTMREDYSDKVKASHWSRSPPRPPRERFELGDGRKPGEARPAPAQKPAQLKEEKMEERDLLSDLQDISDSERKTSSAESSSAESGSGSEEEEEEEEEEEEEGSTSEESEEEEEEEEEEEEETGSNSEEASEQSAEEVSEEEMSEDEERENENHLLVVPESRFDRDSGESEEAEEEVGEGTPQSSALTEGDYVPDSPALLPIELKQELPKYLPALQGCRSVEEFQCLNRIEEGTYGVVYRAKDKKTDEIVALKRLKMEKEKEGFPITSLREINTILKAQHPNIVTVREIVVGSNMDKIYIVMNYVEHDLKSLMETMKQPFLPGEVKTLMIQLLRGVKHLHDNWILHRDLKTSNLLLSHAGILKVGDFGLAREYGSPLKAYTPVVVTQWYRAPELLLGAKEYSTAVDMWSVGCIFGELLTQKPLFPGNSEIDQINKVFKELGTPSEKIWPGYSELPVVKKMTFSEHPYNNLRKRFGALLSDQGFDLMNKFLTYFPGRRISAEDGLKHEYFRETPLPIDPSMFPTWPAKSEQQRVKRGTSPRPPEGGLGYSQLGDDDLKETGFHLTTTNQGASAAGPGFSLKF", "experiment": "Binding affinity to CDC2L2 (unknown origin)"}, "[15]": {"experiment": "Oral bioavailability in Hanover-Wistar rat at 20 mg/kg", "format": "ADME, organism-based", "settings": "in vivo"}, "[16]": {"target": "Calcium/calmodulin-dependent protein kinase type 1 (Homo sapiens, UniProt Q14012)", "sequence (Q14012 whole entry)": "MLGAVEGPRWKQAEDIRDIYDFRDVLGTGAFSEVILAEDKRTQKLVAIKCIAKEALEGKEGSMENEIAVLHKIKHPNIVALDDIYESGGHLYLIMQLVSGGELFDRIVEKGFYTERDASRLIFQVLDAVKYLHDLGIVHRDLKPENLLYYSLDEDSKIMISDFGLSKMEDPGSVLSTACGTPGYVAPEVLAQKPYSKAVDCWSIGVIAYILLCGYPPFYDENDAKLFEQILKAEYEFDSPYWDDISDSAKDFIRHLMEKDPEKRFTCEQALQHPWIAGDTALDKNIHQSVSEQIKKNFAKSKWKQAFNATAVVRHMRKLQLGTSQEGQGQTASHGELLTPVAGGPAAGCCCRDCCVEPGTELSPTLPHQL", "experiment": "Binding affinity to CAMK1 (unknown origin)"}, "[17]": {"target": "Interferon-induced, double-stranded RNA-activated protein kinase (Homo sapiens, UniProt P19525)", "sequence (P19525 whole entry)": "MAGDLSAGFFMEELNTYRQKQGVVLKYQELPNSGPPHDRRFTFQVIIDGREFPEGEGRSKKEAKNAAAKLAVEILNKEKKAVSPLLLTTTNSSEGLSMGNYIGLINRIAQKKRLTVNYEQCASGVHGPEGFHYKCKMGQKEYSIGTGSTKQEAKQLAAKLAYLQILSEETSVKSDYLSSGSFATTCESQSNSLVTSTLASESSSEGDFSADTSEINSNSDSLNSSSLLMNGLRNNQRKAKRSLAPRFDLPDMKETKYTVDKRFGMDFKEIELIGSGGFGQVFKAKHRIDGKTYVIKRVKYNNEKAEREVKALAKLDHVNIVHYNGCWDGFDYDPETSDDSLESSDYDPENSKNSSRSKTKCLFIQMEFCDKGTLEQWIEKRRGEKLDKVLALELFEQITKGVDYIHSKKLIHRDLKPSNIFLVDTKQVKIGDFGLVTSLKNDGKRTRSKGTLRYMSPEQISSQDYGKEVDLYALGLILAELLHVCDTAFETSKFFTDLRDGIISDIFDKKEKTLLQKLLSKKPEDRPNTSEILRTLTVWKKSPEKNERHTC", "experiment": "Binding affinity to PRKR (unknown origin)"}, "[18]": {"target": "Dual specificity protein kinase TTK (Homo sapiens, UniProt P33981)", "sequence (P33981 whole entry)": "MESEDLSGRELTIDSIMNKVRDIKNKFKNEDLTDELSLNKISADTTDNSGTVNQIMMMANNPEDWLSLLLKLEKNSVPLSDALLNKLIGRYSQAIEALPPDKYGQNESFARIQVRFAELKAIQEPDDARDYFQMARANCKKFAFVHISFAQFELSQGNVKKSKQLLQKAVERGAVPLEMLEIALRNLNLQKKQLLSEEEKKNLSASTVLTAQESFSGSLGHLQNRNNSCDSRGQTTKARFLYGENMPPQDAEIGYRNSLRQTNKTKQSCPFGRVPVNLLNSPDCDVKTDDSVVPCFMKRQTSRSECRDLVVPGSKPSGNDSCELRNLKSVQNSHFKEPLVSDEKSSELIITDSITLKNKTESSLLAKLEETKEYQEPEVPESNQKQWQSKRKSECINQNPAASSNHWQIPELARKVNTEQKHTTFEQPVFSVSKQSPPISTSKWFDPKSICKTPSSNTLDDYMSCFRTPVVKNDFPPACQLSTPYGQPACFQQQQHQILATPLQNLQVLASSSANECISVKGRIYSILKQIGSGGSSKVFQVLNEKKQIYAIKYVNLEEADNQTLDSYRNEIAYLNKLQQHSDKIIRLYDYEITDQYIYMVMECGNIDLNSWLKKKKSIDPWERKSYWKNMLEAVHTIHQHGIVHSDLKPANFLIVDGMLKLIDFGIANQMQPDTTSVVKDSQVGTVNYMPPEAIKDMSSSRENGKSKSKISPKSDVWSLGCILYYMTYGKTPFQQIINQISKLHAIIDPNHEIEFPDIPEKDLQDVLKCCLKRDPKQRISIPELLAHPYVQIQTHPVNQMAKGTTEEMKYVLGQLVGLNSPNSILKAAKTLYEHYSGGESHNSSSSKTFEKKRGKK", "experiment": "Binding affinity to TTK (unknown origin)"}, "[19]": {"experiment": "Half life in Hanover-Wistar rat at 20 mg/kg, po", "format": "ADME, organism-based", "design": "dose 20 mg/kg, route oral", "settings": "in vivo"}},
  "note": "pKd: −log10 of the molar value.",
  "data": [
    {"smiles": "CS(=O)(=O)CCCOc1cccc2c1ccn2-c1ccnc(N[C@H]2CC[C@H](C(=O)N3CCC(O)CC3)CC2)n1", "values": [
      {"measurement": "pKd", "setting": "[1]", "value": 5.06},
      {"measurement": "Papp A→B at 10 µM", "setting": "[2]", "value": 0.2, "unit": "×10⁻⁶ cm/s"},
      {"measurement": "pKd", "setting": "[3]", "value": 5.85},
      {"measurement": "pKd", "setting": "LIM domain kinase 2", "value": 5.55},
      {"measurement": "pKd", "setting": "[4]", "value": 6.36},
      {"measurement": "half-life", "setting": "[5]", "value": 4, "unit": "h"},
      {"measurement": "pKd", "setting": "[6]", "value": 5.89},
      {"measurement": "pKd", "setting": "[7]", "value": 5.17},
      {"measurement": "pKd", "setting": "[8]", "value": 6.35},
      {"measurement": "Cmax", "setting": "Rattus norvegicus [9]", "value": 91, "unit": "ng/mL"},
      {"measurement": "solubility thermodynamic", "setting": "[10]", "value": 3.9, "unit": "µg/mL"},
      {"measurement": "Cmax", "setting": "Rattus norvegicus [11]", "value": 2670, "unit": "ng/mL"},
      {"measurement": "bioavailability", "setting": "[12]", "value": 7, "unit": "%"},
      {"measurement": "half-life", "setting": "[13]", "value": 2.6, "unit": "h"},
      {"measurement": "pKd", "setting": "[14]", "value": 5.62},
      {"measurement": "bioavailability", "setting": "[15]", "value": 13, "unit": "%"},
      {"measurement": "pKd", "setting": "[16]", "value": 5.37},
      {"measurement": "pKd", "setting": "[17]", "value": 6.92},
      {"measurement": "pKd", "setting": "[18]", "value": 5.72},
      {"measurement": "half-life", "setting": "[19]", "value": 2.9, "unit": "h"}
    ]}
  ]
}
